Reference: patent US20240041042A1, “1-(PYRIDYL)-5-AZINYLPYRAZOLE DERIVATIVES, AND THEIR USE FOR CONTROL OF UNDESIRED PLANT GROWTH” (Bayer Aktiengesellschaft, priority 2020, published 2024)
Where two headings read alike, the source gives them in different places. Blank lines part the entries; values can stand above or below the compound they belong to.

Key:
Type in all cases: in vivo
Setaria viridis (SETVI) [1] = assay: Post-emergence herbicidal action against SETVI
In short: (§1)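 Post-emergence greenhouse spray, one-leaf stage, 600 l/ha water plus 0.5% additive; WP or EC formulations; application rates 320 g/ha or lower. Visual % damage vs untreated controls at ~3 weeks.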

[2] = tested on: Pharbitis purpurea (PHBPU); assay: Post-emergence herbicidal action against PHBPU
In short: as §1

Lolium rigidum (LOLRI) [3] = assay: Pre-emergence herbicidal action against LOLRI
In short: (§2)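 Application rates ran to 320 g/ha or lower, with several dosages tested on the same weeds. The compound, as wettable powder or emulsion concentrate, is sprayed pre-emergence onto soil over sown seeds; greenhouse growth follows, and effect is rated visually after roughly 3 weeks.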

[4] = tested on: Amaranthus retroflexus (AMARE); assay: Pre-emergence herbicidal action against AMARE; details: visual scoring after about 3 weeks vs untreated controls
In short: as §2

[5] = tested on: Alopecurus myosuroides (ALOMY); assay: Pre-emergence herbicidal action against ALOMY; details: scored visually after about 3 weeks, 100% = plants have died
In short: as §2

[6] = tested on: Verconica persica (VERPE); assay: Pre-emergence herbicidal action against VERPE
In short: as §2

[7] = tested on: Alopecurus myosuroides (ALOMY); assay: Post-emergence herbicidal action against ALOMY; details: visual rating about 3 weeks after treatment vs untreated controls (100% = plants have died, 0% = like control plants)
In short: as §1

Avena fatua (AVEFA) [8] = assay: Pre-emergence herbicidal action against AVEFA; details: visual scoring after about 3 weeks vs untreated controls
In short: as §2

[9] = tested on: Polygonum convolvulus (POLCO); assay: Pre-emergence herbicidal action against POLCO
In short: as §2

[10] = tested on: Echinochloa crus-galli (ECHCG); assay: Pre-emergence herbicidal action against ECHCG; details: dosage 320 g/ha
In short: as §2

[11] = tested on: Echinochloa crus-galli (ECHCG); assay: Post-emergence herbicidal action against ECHCG
In short: as §1

Viola tricolor (VIOTR) [12] = assay: Pre-emergence herbicidal action against VIOTR
In short: as §2

Avena fatua (AVEFA) [13] = assay: Post-emergence herbicidal action against AVEFA; details: visual rating about 3 weeks after treatment
In short: as §1

[14] = tested on: Verconica persica (VERPE); assay: Post-emergence herbicidal action against VERPE
In short: as §1

[15] = tested on: Matricaria inodora (MATIN); assay: Post-emergence herbicidal action against MATIN
In short: as §1

Lolium rigidum (LOLRI) [16] = assay: Post-emergence herbicidal action against LOLRI
In short: as §1

[17] = tested on: Amaranthus retroflexus (AMARE); assay: Post-emergence herbicidal action against AMARE
In short: as §1

Zea mays (ZEAMX) = details: 20 g/ha, ZEAMX, effect in comparison to untreated controls
In short: (§3)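 Test crops were treated 2 to 3 weeks after sowing, once they reached one leaf, by spraying compound in water with 0.5% additive at 600 l/ha. Visual scoring compared them with untreated controls roughly 3 weeks on, and appendices a, b and c denote different doses.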

Oryza sativa (ORYSA) = details: crop plant compatibility
In short: as §3

[18] = tested on: Polygonum convolvulus (POLCO); assay: Post-emergence herbicidal action against POLCO
In short: as §1

Setaria viridis (SETVI) [19] = assay: Pre-emergence herbicidal action against SETVI
In short: as §2

[20] = tested on: Abutilon theophrasti (ABUTH); assay: Post-emergence herbicidal action against ABUTH; details: visual rating about 3 weeks after treatment vs untreated controls (100% = plants have died, 0% = like control plants)
In short: as §1

[21] = tested on: Matricaria inodora (MATIN); assay: Pre-emergence herbicidal action against MATIN
In short: as §2

[22] = tested on: Pharbitis purpurea (PHBPU); assay: Pre-emergence herbicidal action against PHBPU
In short: as §2

[23] = tested on: Abutilon theophrasti (ABUTH); assay: Pre-emergence herbicidal action against ABUTH; details: 100% = plants have died
In short: as §2

Viola tricolor (VIOTR) [24] = assay: Post-emergence herbicidal action against VIOTR
In short: as §1

[25] = 80 g/ha, visual rating about 3 weeks after treatment vs untreated controls (100% = plants have died, 0% = like control plants)
[26] = 80 g/ha, effect in comparison to untreated controls
[27] = Dosage column 320 g/ha (title prints 3200 g/ha), scored visually after about 3 weeks

- Post-emergence action against ZEAMX in % (crop plant compatibility) (Zea mays (ZEAMX)): 20%
- Post-emergence action against ORYSA in % (Oryza sativa (ORYSA); 20 g/ha, effect vs untreated controls): 0%
- Post-emergence action against ORYSA in % (Oryza sativa (ORYSA); [26]): 0%
Structure (SMILES): COC(=O)[C@H](C)COC(=O)COc1nn(-c2ccccn2)c(-c2ccc(F)nc2)c1Br [Example I-76]
- Post-emergence action against SETVI in % (Setaria viridis (SETVI) [1]; dosage 80 g/ha): 90%
- Post-emergence action against PHBPU in % ([2]; dosage 80 g/ha): 90%
- Pre-emergence action against LOLRI in % (Lolium rigidum (LOLRI) [3]; dosage 80 g/ha): 90%
- Pre-emergence action against LOLRI in % (Lolium rigidum (LOLRI) [3]; dosage 320 g/ha): 100%
- Pre-emergence action against AMARE in % ([4]; 80 g/ha): 90%
- Pre-emergence action against AMARE in % ([4]; 320 g/ha): 100%
- Pre-emergence action against ALOMY ([5]; 80 g/ha): 90%
- Pre-emergence action against ALOMY ([5]; 320 g/ha): 100%
- Pre-emergence action against VERPE in % ([6]; dosage 80 g/ha): 100%
- Pre-emergence action against VERPE in % ([6]; dosage 320 g/ha): 100%
- Post-emergence action against ALOMY in % ([7]; 80 g/ha): 100%
- Pre-emergence action against AVEFA in % (Avena fatua (AVEFA) [8]; 320 g/ha): 90%
- Pre-emergence action against POLCO in % ([9]; dosage 80 g/ha): 80%
- Pre-emergence action against POLCO in % ([9]; dosage 320 g/ha): 90%
- Pre-emergence action against ECHCG in % [10]: 90%
- Post-emergence action against ECHCG in % ([11]; dosage 80 g/ha): 90%
- Pre-emergence action against VIOTR in % (Viola tricolor (VIOTR) [12]; 320 g/ha, Viola tricolor): 100%
- Pre-emergence action against VIOTR in % (Viola tricolor (VIOTR) [12]; dosage 80 g/ha): 100%
- Post-emergence action against AVEFA in % (Avena fatua (AVEFA) [13]; 80 g/ha): 90%
- Post-emergence action against VERPE in % ([14]; dosage 80 g/ha): 80%
- Post-emergence action against MATIN in % ([15]; dosage 80 g/ha): 80%
- Post-emergence action against LOLRI in % (Lolium rigidum (LOLRI) [16]; dosage 80 g/ha): 80%
- Post-emergence action against AMARE in % [17, 25]: 80%
- Post-emergence action against POLCO in % ([18]; dosage 80 g/ha): 80%
- Pre-emergence action against SETVI in % (Setaria viridis (SETVI) [19]; dosage 80 g/ha): 80%
- Pre-emergence action against SETVI in % (Setaria viridis (SETVI) [19]; dosage 320 g/ha): 100%
- Post-emergence action against ABUTH in % ([20]; 80 g/ha): 90%
- Pre-emergence action against MATIN in % ([21]; dosage 80 g/ha): 90%
- Pre-emergence action against MATIN in % ([21]; dosage 320 g/ha): 90%
- Pre-emergence action against PHBPU in % ([22]; dosage 320 g/ha): 90%
- Pre-emergence action against ABUTH [23, 27]: 80%

- Post-emergence action against ORYSA in % (Oryza sativa (ORYSA); [26]): 10%
Structure (SMILES): C[C@@H](Oc1nn(-c2ncccc2F)c(-c2ccc(F)nc2)c1I)C(=O)O [Example I-343]
- Post-emergence action against SETVI in % (Setaria viridis (SETVI) [1]; dosage 80 g/ha): 90%
- Post-emergence action against SETVI in % (Setaria viridis (SETVI) [1]; dosage 320 g/ha): 90%
- Post-emergence action against PHBPU in % ([2]; dosage 320 g/ha): 90%
- Pre-emergence action against LOLRI in % (Lolium rigidum (LOLRI) [3]; dosage 80 g/ha): 90%
- Pre-emergence action against LOLRI in % (Lolium rigidum (LOLRI) [3]; dosage 320 g/ha): 90%
- Pre-emergence action against AMARE in % ([4]; 80 g/ha): 100%
- Pre-emergence action against AMARE in % ([4]; 320 g/ha): 100%
- Pre-emergence action against ALOMY ([5]; 80 g/ha): 90%
- Pre-emergence action against ALOMY ([5]; 320 g/ha): 90%
- Pre-emergence action against VERPE in % ([6]; dosage 320 g/ha): 100%
- Post-emergence action against ALOMY in % ([7]; 80 g/ha): 90%
- Post-emergence action against ALOMY in % ([7]; 320 g/ha): 100%
- Pre-emergence action against AVEFA in % (Avena fatua (AVEFA) [8]; 80 g/ha): 80%
- Pre-emergence action against AVEFA in % (Avena fatua (AVEFA) [8]; 320 g/ha): 90%
- Pre-emergence action against POLCO in % ([9]; dosage 80 g/ha): 90%
- Pre-emergence action against POLCO in % ([9]; dosage 320 g/ha): 100%
- Pre-emergence action against ECHCG in % [10]: 100%
- Post-emergence action against ECHCG in % ([11]; dosage 80 g/ha): 90%
- Post-emergence action against ECHCG in % ([11]; dosage 320 g/ha): 90%
- Pre-emergence action against VIOTR in % (Viola tricolor (VIOTR) [12]; 320 g/ha, Viola tricolor): 100%
- Pre-emergence action against VIOTR in % (Viola tricolor (VIOTR) [12]; dosage 80 g/ha): 100%
- Post-emergence action against AVEFA in % (Avena fatua (AVEFA) [13]; 80 g/ha): 80%
- Post-emergence action against AVEFA in % (Avena fatua (AVEFA) [13]; 320 g/ha): 80%
- Post-emergence action against VERPE in % ([14]; 320 g/ha, VERPE): 80%
- Post-emergence action against VERPE in % ([14]; dosage 80 g/ha): 80%
- Post-emergence action against MATIN in % ([15]; dosage 320 g/ha): 80%
- Post-emergence action against LOLRI in % (Lolium rigidum (LOLRI) [16]; dosage 320 g/ha): 90%
- Post-emergence action against AMARE in % [17, 25]: 80%
- Post-emergence action against AMARE in % ([17]; 320 g/ha, visual rating about 3 weeks after treatment): 80%
- Post-emergence action against POLCO in % ([18]; dosage 80 g/ha): 80%
- Post-emergence action against POLCO in % ([18]; dosage 320 g/ha): 80%
- Post-emergence action against VIOTR in % (Viola tricolor (VIOTR) [24]; 80 g/ha): 80%
- Post-emergence action against VIOTR in % (Viola tricolor (VIOTR) [24]; 320 g/ha): 80%
- Pre-emergence action against SETVI in % (Setaria viridis (SETVI) [19]; dosage 80 g/ha): 100%
- Pre-emergence action against SETVI in % (Setaria viridis (SETVI) [19]; dosage 320 g/ha): 100%
- Post-emergence action against ABUTH in % ([20]; 80 g/ha): 80%
- Post-emergence action against ABUTH in % ([20]; 320 g/ha): 90%
- Pre-emergence action against MATIN in % ([21]; dosage 320 g/ha): 100%
- Pre-emergence action against PHBPU in % ([22]; dosage 80 g/ha): 80%
- Pre-emergence action against PHBPU in % ([22]; dosage 320 g/ha): 90%
- Pre-emergence action against ABUTH ([23]; 80 g/ha, scored visually after about 3 weeks vs untreated controls, 0% = like control plants): 80%
- Pre-emergence action against ABUTH [23, 27]: 100%
